Assays:
[1] = system: MCF-7 breast cancer cells; assay: MTT reduction cytotoxicity assay in MCF-7 cells; conditions: pretreatment before simvastatin or fluvastatin (10 μM), 48 h; mevalonate 20 μM, 1400 W 10 μM
Description: MTT Reduction Cytotoxicity Assay:
MTT is taken up by cells and is reduced to a colored formazon product that can be detected by spectrophotometry (max=562 nm). Reduction of MTT is dependent upon the mitochondrial respiratory function, and thus measures the relative number of viable cells in the culture. After the treatment was completed, MCF-7 cells were washed twice with DPBS and taken in a ml of MEM without FBS and incubated with 5 mg/ml MTT solution for 1 h at 37° C. Medium was removed and cells were solubilized in DMSO. The absorption was measured at 562 nm with reference at 630 nm.
We assessed the effectiveness of simvastatin and fluvastatin to induce cytotoxicity in MCF-7 cells. MCF-7 breast cancer cells were treated with fluvastatin or simvastatin at different concentrations (0.5-20 μM) for 24-48 h. The changes in the number of viable cells were determined using the MTT assay that monitors the intracellular conversion of MTT to formazon spectrophotometrically max=562 nm).

[2] = system: arginase II in MCF-7 cells; assay: Arginase II transcript levels by RT-PCR; format: cell-based; conditions: mevalonate 20 μM
Description: Following the treatments, medium was aspirated and 1 ml of TRIzol reagent (Invitrogen) was added and total RNA was extracted using the manufacturer's protocol. Five μg of RNA was used for the first strand cDNA synthesis using a first strand cDNA synthesis kit (Amersham Biosciences). Four μl of the cDNA mixture was used to amplify mRNA's of iNOS [(5′-[…]-3′, SEQ ID NO:1) and (5′-[…]-3′, SEQ ID NO:2)], arginase I [(5′-[…]-3′, SEQ ID NO:3) and (5′-[…]-3′, SEQ ID NO:4)], arginase II [(5′-[…]-3′, SEQ ID NO:5) and (5′-[…]-3′, SEQ ID NO:6)], and eNOS [(5′-[…]-3′, SEQ ID NO:7) and (5′-[…]-3′, SEQ ID NO:8)].

MCF-7 cells = assay: Apoptosis by TUNEL assay; format: cell-based; conditions: with simvastatin or fluvastatin 5-10 μM, 48 h; 1400 W 10 μM, sepiapterin 50 μM, mevalonate 20 μM
Excerpt: Measurement of Apoptosis by TUNEL Assay:
The terminal deoxynucleotidyl transferase-mediated nick-end labeling (TUNEL) assay was used for microscopic detection of apoptosis (Kotamraju S, et al. J Biol Chem, 277:17179-87, 2002). This assay is based on labeling of 3′ free hydroxyl ends of the fragmented DNA with fluorescein-dUTP catalyzed by terminal deoxynucleotidyl transferase. Procedures were followed according to a commercially available kit (ApoAlert) from Clontech. […] The apoptotic cells were detected by fluorescence microscopy equipped with rhodamine and FITC filters. The quantification of apoptosis was performed using the Metamorph image analysis package.
Under these conditions, NO2^−/NO3^− levels were decreased (FIG. 4B). […] Further verification that iNOS is involved in […] NO was obtained from inhibition of geranylgeranylation and farnesylation. […] In contrast, FTI-277 (farnesylation inhibitor) and sepiapterin had no effect on NO2^−/NO3^− levels (FIG. 4C). […] In the TUNEL assay, cells were treated with simvastatin or fluvastatin (5-10 μM) for 48 h in the presence or absence of 1400 W (10 μM), sepiapterin (50 μM) or mevalonate (20 μM) and stained for TUNEL-positive cells as an index of DNA fragmentation monitored by fluorescence microscopy (original magnification, ×100). Photographs were taken for the overlaid images of propidium iodide-and FITC-stained cells (TUNEL-positive cells). Yellow and red denote apoptotic and nonapoptotic cells, respectively. We observed that the TUNEL positive staining was enhanced in statin-treated MCF-7 cells. […] Pretreatment with 1400 W or mevalonate caused a decrease in the TUNEL positive cells.

[3] = system: cyclin D1, cyclin E and p27 in MCF-7 cells; assay: Cell cycle protein levels by Western analysis (cyclin D1, cyclin E, p27); format: cell-based; conditions: 1400 W 10 μM or mevalonate 20 μM
Description: A (Table): The cell cycle distribution of MCF-7 cells treated with either simvastatin or fluvastatin (5-10 μM) for 40 h in the presence or 1400 W (10 μM) or mevalonate (20 μM). The cell sorting was performed by flow cytometry as described in “Materials and Methods.” B: Cells were treated with simvastatin or fluvastatin (10 μM) in the presence or absence of 1400 W (10 μM) or mevalonate (20 μM) for 40 h and cyclins D1 and E protein levels were measured by the Western analysis using the corresponding polyclonal or monoclonal antibodies. Data are representative of three separate experiments.
After treatment with statins, cells were washed with ice-cold DPBS and resuspended in 150 μl of radioimmune precipitation assay buffer (20 mM Tris-HCl, pH 7.4, 2.5 mM EDTA, 1% Triton X-100, 1% sodium deoxycholate, 1% SDS, 100 mM NaCl, 100 mM sodium fluoride) containing 1 mM sodium vanadate, 10 μg/ml aprotinin, 10 μg/ml leupeptin, and 10 μg/ml pepstatin inhibitors. Cells were homogenized by passing the suspension through a 25-gauge needle (20 strokes). The lysate was centrifuged at 750×g for 10 min at 4° C. to pellet out the nuclei. The remaining supernatant was centrifuged for 30 min at 12,000×g. Protein was determined using the Lowry method and 50 μg of the lysate was used for the Western blot analysis. […] The band was detected using the ECL method (Amersham Biosciences).

CC(O)(CCO)CC(=O)O (stereo not shown) [mevalonate]
effect on statin-induced MCF-7 cell cytotoxicity (MTT assay) [1]: significantly reversed
effect on statin-induced down-regulation of Arg II level [2]: reversed
effect on statin-induced TUNEL-positive cells (proapoptotic effect) (MCF-7 cells): decrease
effect on statin-induced decrease of cyclin D1 and cyclin E [3]: restored in part
